This is an account of results in PubChem BioAssay AID2305 (GlaxoSmithKline (GSK), 2010).

As usually defined, the IC50 is the midpoint of a concentration-inhibition curve.

This assay concerns P. falciparum 3D7 growth, pLDH absorbance. Description: P. falciparum 3D7 growth inhibition, dose response, strain 3D7 (AID 2305).

`Fc1ccc2nc(-c3ccc(-c4ccc(CN5CCCCC5)cc4)cc3)[nH]c2c1` showed an IC50 of 350 nM.

Compound `CC(C)CCN1CCCN(Cc2cccc(C(=O)Nc3ccc(C(C)(C)C)cc3)c2)CC1` showed an IC50 of 1100 nM.

In turn, `CCn1c2c(c(=N)c3ccccc31)CCC2` registered an IC50 of 500 nM.

In turn, `CCN(CC)CCN(Cc1ccc(-c2ccc(C(F)(F)F)cc2)cc1)C(=O)Cn1c(SCc2ccc(F)c(F)c2F)nc(=O)c2c1CCC2` gave an IC50 of 1020 nM.

Consider `O=C(Nc1cncc(NC(=O)c2ccc(Cl)c(Cl)c2)c1)c1ccc(Cl)c(Cl)c1`, for which the IC50 amounted to 730 nM.

`CN(C)c1cc(C(=O)N[C@@H](Cc2ccccc2)[C@H](O)CNC2CCCCC2)cc2[nH]ccc12` returned an IC50 of 1070 nM.

`CCCCCCCN1CC[C@@H](CCCc2ccnc3ccc(OCCN4CCOCC4)cc23)[C@@H](CC)C1` returned an IC50 of 910 nM.

Compound `c1ccc(CN2CCC(NCc3cccc(-c4cncc5ccccc45)c3)CC2)cc1` displayed an IC50 of 1360 nM.

The compound `N#Cc1ccc2c(c1)CCN(CCC1CCC(NC(=O)c3ccc(-c4ccccn4)s3)CC1)CC2` (centres undefined) showed an IC50 of 1010 nM.

Compound `Nc1ccc(-c2ccc(NC(=O)Nc3ccccc3)cc2)cn1` displayed an IC50 of 920 nM.

As for `O=C(Nc1ccc(Cl)cc1)N[C@H]1CCN(Cc2ccc(OCCCN3CCCCC3)cc2)C1`, the half-inhibitory concentration (IC50) turned out to be 670 nM.

The compound `COc1ccc(-c2nc3c4cc(I)ccc4c4ccccc4c3[nH]2)cc1` had an IC50 of 1100 nM.

`COc1cc2ccccc2cc1OCCCN1CCN(CC(c2ccc(F)cc2)N2CCN(C(C)C)CC2)CC1` (centres undefined) had a half-maximal inhibitory concentration (IC50) of 750 nM.

In turn, `COc1ccc(-c2ccc(NC(=O)c3cccc(Cl)c3)cc2)cc1CN(C)CCO` returned an IC50 of 710 nM.

In turn, `Nc1nc(N)c2cc(NC(=O)c3ccc(Cl)c(Cl)c3)ccc2n1` came in with an IC50 of 150 nM.

For `COc1cc2nc(N3CCN(C(=O)c4ccc(N(C(=O)OC(C)(C)C)C(=O)OC(C)(C)C)cc4)CC3)nc(N)c2cc1OC`, the IC50 was 1000 nM.

Regarding `CN1CCN(CCNc2c3ccccc3nc3ccc4ccccc4c23)CC1`, the IC50 turned out to be 530 nM.

As to `COc1ccc(-c2ccc(NC(=O)c3ccc(Cl)cc3)cc2)cc1CN1CCCN(C)CC1`, the IC50 was 650 nM.

As to `CN(C)CCNC(=O)c1csc(Nc2ccc(Cl)c(Cl)c2)n1`, the IC50 was 220 nM.

The compound `Cc1cc(C(=O)N(Cc2ccc(-c3ccc(CNCCc4ccc(S(C)(=O)=O)cc4)cn3)cc2)C(C)CN(C)C)ccc1[N+](=O)[O-]` (centres undefined) displayed an IC50 of 790 nM.

In the case of `CN1CCc2ccc(NC(=O)Nc3ccc(Cl)c(Cl)c3)cc2C1`, the IC50 amounted to 720 nM.

`CCNc1cc(C(=O)N[C@@H](Cc2cccc(F)c2)[C@H](O)CNC(C)CCCC(C)C)cc(N2CCCCS2(=O)=O)c1` (some centres undefined) registered an IC50 of 600 nM.

On to `Clc1ccc(OC2CCC(Cn3ccnc3)(c3ccc(Cl)cc3Cl)CC2)c(Cl)c1` (centres undefined), for which the IC50 was found to be 800 nM.

The compound `COc1c(OC)c(OC)c2ccccc2c1CNCCCCCCNCc1c(OC)c(OC)c(OC)c2ccccc12` showed an IC50 of 760 nM.

The compound `Cc1ccc(-c2nc3ccccc3o2)cc1NCc1cc(Cc2ccccc2)ccc1O` came in with an IC50 of 1030 nM.

`CCn1c(-c2nonc2N)nc2cnc(Oc3cccc(NC(=O)c4ccc(OCCN5CCCCC5)cc4)c3)cc21` showed an IC50 of 1060 nM.

With `Cc1cc2nc(-c3cc(-c4cccc(NS(C)(=O)=O)c4)cnc3N)[nH]c2cc1C`, the IC50 stood at 670 nM.

The compound `COc1ccc(C2CC(=O)C3=C(C2)NC(C)=C(C(=O)OC2CCCC2)C3c2cccc(O)c2)cc1` (centres undefined) returned an IC50 of 1010 nM.

In the case of `CCNc1cc(C(=O)N[C@@H](Cc2ccccc2)[C@H](O)CNC(CC)c2cccc(Cl)c2)cc(N2CCCC2=O)c1` (some centres undefined), the IC50 was determined as 30 nM.

On to `CCCCNc1nccc2ccc(-c3ccncc3)cc12`, for which the IC50 was 770 nM.

For the compound `CN1CC=C(c2csc3ccc(NC(=O)Nc4ccc(-c5ccncc5)c(Cl)c4)cc23)CC1`, the IC50 is 680 nM.

With `NC(=O)c1cc(-c2ccccc2)cc2c(C3CCC(NCc4ccccc4)C3)c[nH]c12` (centres undefined), the IC50 was 910 nM.

`COc1ccc2c(c1C1CCN(CCCCNC(=O)c3ccc(NC(=O)c4ccc(Cl)cc4)cc3)CC1)CCCC2` came in with an IC50 of 340 nM.

Consider `COc1ccccc1C1CCN(C2CCC(NC(=O)/C=C/c3cccc(Cl)c3)CC2)CC1` (centres undefined), for which the IC50 worked out at 1030 nM.
